Numbered stars: 1 amine (or outer) side, 2 acyl side, 3 side chain; on linkers, the order of the positions; unused ones are H or OH. Square brackets hold non-standard residues; d marks the D form. Side chains are listed from the residue outwards. Peptide text beside a SMILES is read from it. * marks the point of attachment. X1 = O=C(O)CCCCCCCCCCCCCCCCC(=O)N[C@@H](CCC(=O)NCCCNCCCCNCCCN*)C(=O)O; C18 diacid = O=C(O)CCCCCCCCCCCCCCCCC(=O)*; γGlu = O=C(O)[C@H](CCC(=O)[*:2])N[*:1]; εLys = N[C@@H](CCCCN[*:1])C(=O)[*:2]; NMeL = CN[C@@H](CC(C)C)C(=O)O; Suc = O=C(CCC(=O)[*:2])[*:1]; Nle = CCCC[C@H](N)C(=O)O
Legend:
[1] = Energy expenditure screening by indirect calorimetry in diet-induced obese mice; assay type: in vivo; details: DIO mice, 0.5 mg/kg s.c., increase over vehicle
Description: Indirect calorimetry was used to evaluate the ability of individual peptide analogues to dose-dependently increase energy expenditure (EE) we used metabolic cages and indirect calorimetry measured by the Promethion system. To this end, oxygen consumption was used as a surrogate measure for EE. Substrate preference (fat or carbohydrate) was evaluated using the respiratory exchange ratio (RER). In parallel, behavioral information such as walking distance and water and food intake were recorded.
Prior to experimentation, DIO mice were transferred to habituation cages for at least 10 days (5 days outside and at least 5 days in the Sable Systems gas analyzer module) to acclimatize. For all in vivo compound tests for EE evaluation, mice received subcutaneous injections between 2 and 4 pm.
Energy expenditure screening: After habituation, mice were subcutaneously injected with 0.5 mg/kg peptide analogue in a volume of 2 ml/kg. Mice were injected q.a.d. (quaque altera die) and received a total of two injections. EE was evaluated and increase over vehicle was calculated as percent of mean oxygen consumption over a 30-hour period after injection. Prior to injection peptide analogues were dissolved to 0.25 mg/ml in in vivo buffer.

in vivo = experiment: in vivo; set-up: species or system mice; details: mouse
Description: Pharmacokinetics: To evaluate the in vivo half-life of individual peptide analogues we used wild type lean mice at around 10 weeks of age injected once with a peptide analogue. For each sample time point 3-4 mice were used and blood was drawn from the submandibular vein at indicated time points following injection. Prior to injection mice were given ad libitum access to standard chow diet. Mice were subcutaneously injected with 0.5 mg/kg peptide analogue in a volume of 2 ml/kg. The amount of peptide analogue and metabolite(s) present in blood samples were measured by TF-LC-MS and MetID-LC-MS, respectively. Sample preparation: One volume of plasma is precipitated with three volumes of ethanol (with internal standard). The mixture is centrifuged at 13000 g for 20 min. One volume of supernatant is diluted with two volumes of Milli-Q water (1% formic acid). Calibration curve: peptide analogue was spiked into blank mouse plasma. Range: 0.5 to 2000 nM (linear 1/x2).

Row | Structure (SMILES) | Energy expenditure (percent of vehicle; based on 30 h average vO2) [1] | Plasma exposure [26 h] (in vivo) | level at time molar at 2 h (in vivo; sc, 0.5 mg/kg) [nM] | Plasma exposure [2 h] (in vivo) [nM]
1 | CCCC[C@H](NC(=O)[C@H](CC(C)C)N(C)C(=O)CNC(=O)[C@@H](NC(=O)[C@H](Cc1ccc(O)cc1)NC(=O)[C@H](CCCCN)NC(=O)[C@H](CC(=O)O)NC(=O)CCC(=O)NCCCNCCCCNCCCNC(=O)CC[C@H](NC(=O)CCCCCCCCCCCCCCCCC(=O)O)C(=O)O)C(C)C)C(N)=O [compound 318, *Asp;Lys;Tyr;Val;Gly;NmLeu;Nle;NH2] ({X1-Suc}-DKYVG[NMeL][Nle]-NH2) | 0% of vehicle | BLLQ | 237 | –
2 | CCCC[C@H](NC(=O)[C@H](CC(C)C)N(C)C(=O)CNC(=O)[C@@H](NC(=O)[C@H](Cc1ccc(O)cc1)NC(=O)[C@H](CCCCN)NC(=O)[C@H](CC(=O)O)NC(=O)[C@@H](N)CCCCNC(=O)[C@@H](N)CCCCNC(=O)CC[C@H](NC(=O)CCCCCCCCCCCCCCCCC(=O)O)C(=O)O)C(C)C)C(N)=O [compound 321, *Asp;Lys;Tyr;Val;Gly;NmLeu;Nle;NH2] (H-K([εLys-γGlu-C18 diacid])DKYVG[NMeL][Nle]-NH2) | 5% of vehicle | 763 nM | – | 2266

Source: US20230406883A1, “COMPOUNDS AND THEIR USE IN TREATMENT OF TACHYKININ RECEPTOR MEDIATED DISORDERS” (Embark Biotech ApS, priority 2020, published 2023)
